From patent US12303592B2, “Formulations for parenteral delivery of compounds and uses thereof” (Wyeth, LLC, priority 2006, dated 2025)

Columns and labels:
opioid receptors = conditions: found in U.S. Ser. No. 11/441,395 and 11/441,452; cited from earlier work
[1] = for inhibition of formation of 2′,2′ bis methylnaltrexone degradant / inhibition of formation of 7-dihydroxy-methylnaltrexone degradant: in presence of iron, 40° C. and room temperature
Procedure: FIG. 1A and FIG. 1B: Effect of CaEDTA and NaEDTA on the formation of 2′,2-bis methylnaltrexone in the presence of iron at 40° C. (FIG. 1A) and room temperature, […] (FIG. 1B).
FIGS. 2A, 2B, 2C, and 2D: Effect of CaEDTA on the formation of 7-dihydroxy methylnaltrexone in solutions. The effect of CaEDTA and NaEDTA on the formation of 7-dihydroxy methylnaltrexone in the presence of iron at 40° C. (FIG. 2A) and room temperature, 25° (FIG. 2B) was assessed. […] The effect of CaEDTA on the formation of 7-dihydroxy methylnaltrexone in solution following one month storage at room temperature (FIG. 2C) and at 40° C. (FIG. 2D) was assessed. The presence of CaEDTA reduced formation of 7-dihydroxy methylnaltrexone at either temperature.
FIG. 3A and FIG. 3B: Effect of CaEDTA in methylnaltrexone solution on the formation of a methylnaltrexone degradant having an RRT 0.79 (“the 0.79 degradant”). The effect of CaEDTA and NaEDTA on the formation of the 0.79 degradant at room temperature, 25° (FIG. 3A) and at 40° C. (FIG. 3B) was assessed. Calcium EDTA was not effective at inhibiting formation of the 0.79 degradant, and may increase levels of degradant formation.
Inhibition of metal-catalyzed formation of 2,2′bis methylnaltrexone. […] We have found by HPLC analysis (Method B) the 2,2′bis methylnaltrexone degradant results in a peak having an RRT about 1.55. Fe^3+ is an ion that can get into the liquid formulation from several sources. For example, it can be leached from stainless steel process equipment, syringe needles, stoppers and amber vials. EDTA, as a metal chelating agent sequesters the available Fe^3+ in the solution, thereby preventing catalysis of the undesirable metal-catalyzed reactions. Methylnaltrexone solutions were prepared in 0.9% NaCl, in the presence of iron and various concentrations of sodium EDTA and calcium EDTA. Used throughout the experiments sodium EDTA is EDTA disodium dihydrate, and the terms sodium EDTA, EDTA disodium dihydrate, and NaEDTA are used interchangeably throughout. Used throughout the experiments calcium EDTA is calcium EDTA disodium, and the terms calcium EDTA, calcium EDTA disodium, and CaEDTA are used interchangeably throughout. Formation of 2,2′bis methylnaltrexone was assessed at room temperature as well as at 40° C. Addition of either sodium or calcium EDTA solution was effective at inhibiting formation of the 2,2′bis methylnaltrexone degradant.
We have found Ca^2+ chelating agent provides additional inhibition of formation of a 7-dihydroxy-methylnaltrexone degradant as compared to Na^2+ chelating agent. Methylnaltrexone solutions were prepared in 0.9% NaCl, in the presence of iron and various concentrations of sodium EDTA and calcium EDTA. Formation of 7-dihydroxy-methylnaltrexone was assessed at room temperature as well as at 40° C.

With `C[N+]1(CC2CC2)CCC23c4c5ccc(O)c4OC2C(=O)CCC3(O)C1C5` (single isomer, unassigned) [R—N isomer of methylnaltrexone] as the molecule, how does the opioid activity (opioid receptors) read?
The opioid activity was “opioid antagonist”.

For `C[N@@+]1(CC2CC2)CC[C@]23c4c5ccc(O)c4OC2C(=O)CCC3(O)C1C5` (single isomer, unassigned) [S—N isomer of methylnaltrexone], which opioid activity (opioid receptors) is on record?
The opioid activity was “opioid agonist”.

Which results are given for `O=C([O-])CN(CCN(CC(=O)[O-])CC(=O)[O-])CC(=O)[O-].[Ca+2].[Na+].[Na+]` [calcium EDTA, calcium EDTA disodium]?
inhibition of formation of 2′,2′ bis methylnaltrexone degradant [1]: effective inhibitors; inhibition of formation of 7-dihydroxy-methylnaltrexone degradant [1]: effective inhibitor; inhibition of formation of the 0.79 degradant ([1]; room temperature and 40° C.): not effective

Which results are given for `O.O.O=C([O-])CN(CCN(CC(=O)[O-])CC(=O)O)CC(=O)O.[Na+].[Na+]` [sodium EDTA, EDTA disodium dihydrate]?
inhibition of formation of 2′,2′ bis methylnaltrexone degradant [1]: effective inhibitors; inhibition of formation of 7-dihydroxy-methylnaltrexone degradant [1]: may even increase levels
